Measurements taken from patent publication US20240300927A1, “AMIDES AS CBL-B INHIBITORS” (Genentech, Inc., priority 2021, published 2024).

How the values were obtained:
Cbl-b = Cbl-b (Homo sapiens (Human), UniProt Q13191); assay: Cbl-b LCK Ub TR-FRET assay (Cbl-b Lck HTRF); assay type: biochemical; details: for (fold-selectivity): Cbl-b and C-Cbl selectivity, Lck HTRF; for IC50: read-out: Cbl-b Lck HTRF IC50
Description: (§1) Compounds were 3-fold serially diluted in DMSO in a 384-well polypropylene plate (#P-05525-BC; Labcyte) to generate a source plate with 10 concentrations of each compound, top concentration=2 mM. 80 nL of DMSO or compounds were transferred to each well of a black 384-well ProxiPlate (#6008260; PerkinElmer) using a Labcyte Echo. 1× assay buffer (50 mM HEPES pH7.0, 100 mM NaCl, 0.01% BSA, 0.01% Triton-X100, 1 mM DTT), 2× enzyme solution (16 nM Biotin-Cbl-b or 12 nM Biotin-c-Cbl in 1× assay buffer), 2× kinase mixture (120 nM His-LCK, 1 mM ATP, 10 mM MgCl2 in assay buffer) and 2.33× detection mixture (4.66× solution 1: 163 nM Anti-HA-D2 antibody (#610HADAB; PerkinElmer), 27.96 nM Streptavidin-EU (#AD0062; PerkinElmer), 1.398 mM EDTA in 1× assay buffer+4.66× solution 2: 2.796 μM UBE2D2/Methylated-HA-Ubiquitin thioester adduct (BostonBiochem) in 1× assay buffer) were prepared. 4 μL of 2× enzyme solution was added to each well containing compound, briefly centrifuged to mix, and incubated for 60 min at room temperature. 4 μL of 2× kinase mixture was added, briefly centrifuged to mix, and incubated for 90 min. at room temperature. 6 μL of detection mixture was added to all wells and briefly centrifuged before incubating for 20 min at room temperature. Plates were read for TR-FRET using an Envision at excitation 340 nm, emission at 615 and 665 nm, 4 flashes per well. IC50 was generated using no LCK as the low control and DMSO as the high control.
(§2) Cbl-b Lck HTRF data in Table 3 is measured according to Example 25 herein; C-cbl Lck HTRF data is measured according to Example 25 herein.
(§3) SPR and the LCK biochemical assay are orthogonal assays: SPR is a protein binding assay while the LCK assay is an enzyme activity assay. SPR measures compound binding affinity to CBL-B/C-CBL, whereas LCK assay measures compound inhibition of CBL-B/C-CBL ubiquitin transfer activity.

c-Cbl = c-Cbl (Homo sapiens (Human), UniProt P22681); assay: C-cbl LCK Ub TR-FRET assay (C-cbl Lck HTRF); assay type: biochemical
Sequence of c-Cbl (P22681 47-435): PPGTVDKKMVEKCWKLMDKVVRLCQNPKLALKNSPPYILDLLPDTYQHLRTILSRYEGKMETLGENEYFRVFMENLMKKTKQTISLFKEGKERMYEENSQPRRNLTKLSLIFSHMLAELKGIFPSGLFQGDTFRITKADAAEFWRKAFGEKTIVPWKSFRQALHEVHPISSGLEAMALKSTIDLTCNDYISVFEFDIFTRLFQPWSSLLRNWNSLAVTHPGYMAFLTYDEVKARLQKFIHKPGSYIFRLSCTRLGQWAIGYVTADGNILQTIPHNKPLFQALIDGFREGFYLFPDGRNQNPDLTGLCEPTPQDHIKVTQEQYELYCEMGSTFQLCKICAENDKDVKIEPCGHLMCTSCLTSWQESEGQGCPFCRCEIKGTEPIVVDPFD
Description: as §1, §2, §3

Sequence of Cbl-b (Q13191 40-426): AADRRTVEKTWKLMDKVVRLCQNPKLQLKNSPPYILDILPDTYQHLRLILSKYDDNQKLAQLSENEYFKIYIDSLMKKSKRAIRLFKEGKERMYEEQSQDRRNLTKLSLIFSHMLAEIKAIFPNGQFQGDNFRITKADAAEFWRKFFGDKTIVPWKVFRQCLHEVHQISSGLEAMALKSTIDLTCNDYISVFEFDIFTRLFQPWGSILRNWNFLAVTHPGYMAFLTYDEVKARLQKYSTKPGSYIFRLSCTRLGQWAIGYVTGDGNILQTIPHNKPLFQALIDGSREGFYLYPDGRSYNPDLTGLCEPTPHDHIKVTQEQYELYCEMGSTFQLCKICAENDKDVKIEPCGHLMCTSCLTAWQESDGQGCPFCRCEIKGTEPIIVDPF

Compound	(fold-selectivity) (Cbl-b)	IC50 (Cbl-b) [nM]	IC50 (c-Cbl) [nM]
C[C@H](c1cc(C(=O)Nc2cccc(C3([C@@H](F)c4nncn4C)COC3)c2)nc(C2CC2)c1)N1CC(C)(F)C1 [Compound 113, 6-cyclopropyl-N-(3-(3-((R)-fluoro(4-methyl-4H-1,2,4-triazol-3-yl)methyl)oxetan-3-yl)phenyl)-4-((R)-1-(3-fluoro-3-methylazetidin-1-yl)ethyl)picolinamide]	(1.2x)	21	27
C[C@@H](c1cc(C(=O)Nc2cccc(C3([C@H](F)c4nncn4C)COC3)c2)nc(C2CC2)c1)N1CC(C)(F)C1 [Compound 114, 6-cyclopropyl-N-(3-(3-((S)-fluoro(4-methyl-4H-1,2,4-triazol-3-yl)methyl)oxetan-3-yl)phenyl)-4-((S)-1-(3-fluoro-3-methylazetidin-1-yl)ethyl)picolinamide]	(0.76x)	290	220
C[C@H](c1cc(C(=O)Nc2cccc(C3([C@H](F)c4nncn4C)COC3)c2)nc(C2CC2)c1)N1CC(C)(F)C1 [Compound 115, 6-cyclopropyl-N-(3-(3-((S)-fluoro(4-methyl-4H-1,2,4-triazol-3-yl)methyl)oxetan-3-yl)phenyl)-4-((R)-1-(3-fluoro-3-methylazetidin-1-yl)ethyl)picolinamide]	(1.1x)	50	56
C[C@H](Cc1nncn1C)c1cccc(NC(=O)c2nc(C(F)(F)F)cn2C)c1 [Compound 121, (R)-1-methyl-N-(3-(1-(4-methyl-4H-1,2,4-triazol-3-yl)propan-2-yl)phenyl)-4-(trifluoromethyl)-1H-imidazole-2-carboxamide]	(0.67x)	4400	2900
C[C@H](Cc1nncn1C)c1cccc(NC(=O)c2nc(C3CC3)c[nH]2)c1 [Compound 122, (R)-4-cyclopropyl-N-(3-(1-(4-methyl-4H-1,2,4-triazol-3-yl)propan-2-yl)phenyl)-1H-imidazole-2-carboxamide]	(0.79x)	2800	2200
Cn1cnnc1CC1(c2cccc(NC(=O)c3nc(C(F)(F)F)c[nH]3)c2)COC1 [Compound 123, N-(3-(3-((4-methyl-4H-1,2,4-triazol-3-yl)methyl)oxetan-3-yl)phenyl)-4-(trifluoromethyl)-1H-imidazole-2-carboxamide]	(0.77x)	2300	1800
Cn1cnnc1C(F)C1(c2cccc(NC(=O)c3nc(C(F)(F)F)c[nH]3)c2)COC1 (stereo not drawn) [Compound 124, N-(3-(3-(fluoro(4-methyl-4H-1,2,4-triazol-3-yl)methyl)oxetan-3-yl)phenyl)-4-(trifluoromethyl)-1H-imidazole-2-carboxamide]	(1.1x)	3700	3900
CC(C)[C@H]1CN(C)CCN1Cc1cc(C(=O)Nc2cccc(C3([C@H](F)c4nncn4C)CC(F)(F)C3)c2)nc(C2CC2)c1 [Compound 223, 6-cyclopropyl-N-(3-(3,3-difluoro-1-((S)-fluoro(4-methyl-4H-1,2,4-triazol-3-yl)methyl)cyclobutyl)phenyl)-4-(((S)-2-isopropyl-4-methylpiperazin-1-yl)methyl)picolinamide]	(1.0x)	11	11

The remaining lines, values ahead:

(fold-selectivity) (Cbl-b)	IC50 (Cbl-b) [nM]	IC50 (c-Cbl) [nM]	Compound
(1.2x)	7.1	8.4	CC(C)[C@H]1CN(C)CCN1Cc1cc(C(=O)Nc2cccc(C3([C@@H](F)c4nncn4C)CC(F)(F)C3)c2)nc(C2CC2)c1 [Compound 225, 6-cyclopropyl-N-(3-(3,3-difluoro-1-((R)-fluoro(4-methyl-4H-1,2,4-triazol-3-yl)methyl)cyclobutyl)phenyl)-4-(((S)-2-isopropyl-4-methylpiperazin-1-yl)methyl)picolinamide]
(0.68x)	17	12	Cn1cnnc1CC1(c2cccc(NC(=O)c3cc(CN4CC(C)(O)C4)cc(C4CC4)n3)c2)CC(F)(F)C1 [Compound 495, 6-cyclopropyl-N-(3-(3,3-difluoro-1-((4-methyl-4H-1,2,4-triazol-3-yl)methyl)cyclobutyl)phenyl)-4-((3-hydroxy-3-methylazetidin-1-yl)methyl)picolinamide]
(0.76x)	13	10	Cn1cnnc1CC1(c2cccc(NC(=O)c3cc(CN4CC(C)(CO)C4)cc(C4CC4)n3)c2)CC(F)(F)C1 [Compound 496, 6-cyclopropyl-N-(3-(3,3-difluoro-1-((4-methyl-4H-1,2,4-triazol-3-yl)methyl)cyclobutyl)phenyl)-4-((3-(hydroxymethyl)-3-methylazetidin-1-yl)methyl)picolinamide]
(0.95x)	34	33	Cn1cnnc1[C@H](F)C1(c2cccc(NC(=O)c3cc(CN4CC(C)(CO)C4)cc(C4CC4)n3)c2)CC(F)(F)C1 [Compound 497, (R)-6-cyclopropyl-N-(3-(3,3-difluoro-1-(fluoro(4-methyl-4H-1,2,4-triazol-3-yl)methyl)cyclobutyl)phenyl)-4-((3-(hydroxymethyl)-3-methylazetidin-1-yl)methyl)picolinamide]
(0.62x)	10	6.2	CC(C)[C@H]1CN(C)CCN1Cc1cc(C(=O)Nc2cccc(C3(Cc4nncn4C)COC3)c2)nc(C2CC2)c1 [Compound 498, (S)-6-cyclopropyl-4-((2-isopropyl-4-methylpiperazin-1-yl)methyl)-N-(3-(3-((4-methyl-4H-1,2,4-triazol-3-yl)methyl)oxetan-3-yl)phenyl)picolinamide]
(0.63x)	11	7	CC(C)[C@H]1CN(C)CCN1Cc1cc(C(=O)Nc2cccc(C3([C@@H](F)c4nncn4C)COC3)c2)nc(C2CC2)c1 [Compound 499, 6-cyclopropyl-N-(3-(3-((R)-fluoro(4-methyl-4H-1,2,4-triazol-3-yl)methyl)oxetan-3-yl)phenyl)-4-(((S)-2-isopropyl-4-methylpiperazin-1-yl)methyl)picolinamide]
(0.82x)	9.9	8	CC(C)[C@H]1CN(C)CCN1Cc1cc(C(=O)Nc2cccc(C3([C@H](F)c4nncn4C)COC3)c2)nc(C2CC2)c1 [Compound 500, 6-cyclopropyl-N-(3-(3-((S)-fluoro(4-methyl-4H-1,2,4-triazol-3-yl)methyl)oxetan-3-yl)phenyl)-4-(((S)-2-isopropyl-4-methylpiperazin-1-yl)methyl)picolinamide]
(1.1x)	15000	17000	Cn1cnnc1[C@H](F)[C@@]1(c2cccc(NC(=O)c3cccc(C(F)(F)F)n3)c2)CCO1 [Compound 501, N-(3-((S)-2-((S)-fluoro(4-methyl-4H-1,2,4-triazol-3-yl)methyl)oxetan-2-yl)phenyl)-6-(trifluoromethyl)picolinamide]
(1.0x)	20000	20000	Cn1cnnc1[C@@H](F)[C@@]1(c2cccc(NC(=O)c3cccc(C(F)(F)F)n3)c2)CCO1 [Compound 502, N-(3-((S)-2-((R)-fluoro(4-methyl-4H-1,2,4-triazol-3-yl)methyl)oxetan-2-yl)phenyl)-6-(trifluoromethyl)picolinamide]
